This is an account of results in patent US9566269B2, “Modified release compositions of epalrestat or a derivative thereof and methods for using the same” (Bionevia Pharmaceuticals Inc., priority 2011, dated 2017).

Data set [1] in a line: Ionization study in different pH environments (calculated from pKa). Type of data set: physicochemical. The protocol: The percentage ionization of Epalrestat in different pH environments of the human gastrointestinal tract was calculated based on the pKa value (3.61).
The conditions of data set [2]: cited from earlier work.
For data set [3] the following is noted: cited from earlier work. This is another data set of the same source.
Setting [4] is: immediate release 50 mg dosage, healthy adult volunteers.

As a reminder, the Cmax is the highest concentration seen after dosing. `C/C(C=C1SC(=S)N(CC(=O)O)C1=O)=C\c1ccccc1` (single isomer, unassigned) [epalrestat, 5-[(1Z,2E)-2-methyl-3-phenylpropenylidene]-4-oxo-2-thioxo-3-thiazolidineacetic acid]: the “% Ionized” value was 0% in data set [1] (pH 1.2); 20.0% in data set [1] (pH 3.0); 44.0% in data set [1] (pH 3.5); 71.0% in data set [1] (pH 4.0); 89.0% in data set [1] (pH 4.5); 96.0% in data set [1] (pH 5.0). For the same compound, the “% Ionized” value in data set [1] (pH 5.5) is listed as 99.0%; in data set [1] (pH 6.0) it was 100.0%; in data set [1] (pH 6.8), 100.0%. Besides, in data set [2], the pKa value was 3.61. Besides, in data set [3] (4 hours after administration of 50 mg tablets of epalrestat free acid), the Plasma level was 0.37 µg/mL. Further, in data set [3] (setting [4]), the Cmax was 3.9 µg/mL. In data set [3] (setting [4]), the t1/2 is 1.8 h. In addition, in data set [3] (setting [4]), the tmax was 1.05 h. In addition, the “total AUC0-∞” value in data set [3] (setting [4]) is 6.4 µg·h/mL.
